Laboratory results as given in US8927023B2, “Biocompatible, non-biodegradable, non-toxic polymer useful for nanoparticle pharmaceutical compositions” (Fresenius Kabi Oncology Limited, priority 2005, dated 2015).
Blank lines part the entries; values can stand above or below the compound they belong to.

What was measured:
[1] = Clarity of the solution of the nanoparticulate composition; format: physicochemical
Description: (§1) This could be exemplified with respect to pharmaceutical compositions of two poorly water-soluble anticancer drugs or compounds, viz.

[2] = Average particle size of the nanoparticles in the pharmaceutical composition; format: physicochemical; conditions: 1 ml ethanol solution into ≈35 ml
Description: as §1

[3] = Stability: hours the drug remains in solution without precipitation
Description: By reference to the term “stability”, it is to be construed to mean the period, counted in hours, wherein the poorly water-soluble drug or compound remains in solution in the pharmaceutical composition comprising the same, without any precipitation of the drug or compound from therein.

[4] = 1 ml ethanol solution into ≈35 ml, needle 0.305 mm, addition 3 Secs
[5] = 1 ml ethanol solution into ≈35 ml, needle 1.270 mm, addition 2 Secs
[6] = 1 ml ethanol solution into ≈35 ml, needle 1.270 mm, addition 6 Secs
[7] = 15 ml ethanol solution into ≈500 ml, needle 0.330 mm, addition 18 Secs
[8] = 15 ml ethanol solution into ≈500 ml, needle 0.711 mm, addition 10 Secs

Compound: C=C(C)[C@@H]1CC[C@]2(C(=O)O)CC[C@]3(C)C(CCC4[C@@]5(C)Cc6c([nH]c7ccc(Cl)cc67)C(C)(C)C5CC[C@]43C)C12 (stereo partly drawn) [DRF-4012]
Clarity Of The Solution [1, 4]: Clear
Clarity Of The Solution [1, 5]: Opalescent
Clarity Of The Solution [1, 6]: Milky
Average Particle Size (nm) ([2]; needle 0.305 mm, addition 6 Secs): 200 nm
Average Particle Size (nm) ([2]; needle 0.465 mm, addition 2 Secs): 90 nm
Average Particle Size (nm) ([2]; needle 0.467 mm, addition 6 Secs): 200 nm
Average Particle Size (nm) ([2]; needle 0.711 mm, addition 2 Secs): 100 nm
Average Particle Size (nm) ([2]; needle 0.711 mm, addition 6 Secs): 240 nm
Average Particle Size (nm) ([2]; needle 1.270 mm, addition 2 Secs): 130 nm
Average Particle Size (nm) ([2]; needle 1.270 mm, addition 6 Secs): 8100 nm
Average Particle Size (nm) ([2]; nanoparticles with the polymer, needle 0.305 mm, addition 3 Secs): 70 nm

Stability [3, 4]: >24 h
Stability ([3]; 1 ml ethanol solution into ≈35 ml, needle 0.305 mm, addition 6 Secs): <4 h
Stability ([3]; 1 ml ethanol solution into ≈35 ml, needle 0.467 mm, addition 2 Secs): 20 h
Stability ([3]; 1 ml ethanol solution into ≈35 ml, needle 0.467 mm, addition 6 Secs): <2 h
Stability ([3]; 1 ml ethanol solution into ≈35 ml, needle 0.711 mm, addition 2 Secs): <10 h
Stability ([3]; 1 ml ethanol solution into ≈35 ml, needle 0.711 mm, addition 6 Secs): <2 h
Stability [3, 5]: <4 h
Stability [3, 6]: <0.5 h
Stability [3, 7]: 20 h
Stability [3, 8]: >24 h
Stability ([3]; 15 ml ethanol solution into ≈500 ml, needle 0.711 mm, addition 15 Secs): <15 h
Clarity Of The Solution [1, 4]: Clear
Clarity Of The Solution [1, 5]: Opalescent
Clarity Of The Solution [1, 6]: Milky
Clarity Of The Solution [1, 7]: Clear
Clarity Of The Solution [1, 8]: Clear
Compound: CC(=O)O[C@H]1C(=O)[C@@]2(C)[C@H]([C@H](OC(=O)c3ccccc3)[C@]3(O)C[C@H](OC(=O)[C@H](O)[C@@H](NC(=O)c4ccccc4)c4ccccc4)C(C)=C1C3(C)C)[C@]1(OC(C)=O)CO[C@@H]1C[C@@H]2O [Paclitaxel]
